Read-outs that look alike come from different tables or passages of the source.

The conditions of series [1]: cited from earlier work.
The conditions of series [2]: cited from earlier work. This is another data set of the same source.
Series [3] in a line: Fraction of ketamine in the neutral state at various pHs. Format: physicochemical. To be noted: mother's milk, pH about 7.2-7.4, estimated from Table I.
For series [4] the following is noted: cited from earlier work. The source holds these as a separate data set.
A further series has as its system orosomucoid. To be noted: human blood; cited from earlier work.
For series [5] the following is noted: cited from earlier work. The source holds these as a separate data set.

Turning to `N=C(N)NCCC[C@H](N)C(=O)O` [Arginine], the “Log P” value in series [1] is reported as −1.7.
Turning to `N[C@@H](Cc1c[nH]cn1)C(=O)O` [Histidine], the pKa in series [2] is 9.1.
With `CNC1(c2ccccc2Cl)CCCCC1=O` (stereo not shown) [Ketamine], the “neutral fraction of ketamine in milk” value in series [3] is 30-40%. Besides, the “Fraction of neutral ketamine” value in series [4] (pH 7.1) is 28.0%; in series [4] (pH 7.4), 44.3%; in series [4] (pH 7.5), 50.0%.
In the case of `NCCCC[C@H](N)C(=O)O` [Lysine], the “Log P” value in series [1] is given as −3.2.
As to `O=C(O)[C@@H]1CCCN1` [Proline], in series [1], the “Log P” value is −2.6.
Turning to `Cc1ncc(CO)c(CO)c1O` [Pyridoxine], the pKa in series [2] was 8.7.
Turning to `Cc1cc2nc3c(=O)[nH]c(=O)nc-3n(C[C@H](O)[C@H](O)[C@H](O)CO)c2cc1C` [Riboflavin], the “Log P” value in series [1] was −0.92.
On to `CN[C@H]1CC[C@@H](c2ccc(Cl)c(Cl)c2)c2ccccc21` [Sertraline], for which the “Log P” value in series [1] is recorded as 5.10. The bound to orosomucoid in the series with orosomucoid is recorded as 95%. Further, in series [5], the “bound in mother's milk” value is reported as “about 80%”.
As for `NCCS(=O)(=O)O` [Taurine], in series [1], the “Log P” value was −1.9. The figures for the pKa in series [2] and in series [2] (room temperature) were 9.0 and “about 9”, respectively.
`Cc1ncc(C[n+]2csc(CCO)c2C)c(N)n1` [Thiamine]: the “Log P” value in series [1] is recorded as −3.1; in series [1] (listed as thiamine), roughly −3.
As to `CNCCC(Oc1ccc(C(F)(F)F)cc1)c1ccccc1` (stereo not shown) [fluoxetine, reference compound], the pKa result in series [2] (room temperature) is recorded as “about 10.3”.

The values are drawn from patent publication US10064417B2, “Milk filtration devices and methods for filtering” (Janssen Pharmaceutica NV, priority 2015, dated 2018).
